From patent US8859777B2, “4-fluoro-4-arylpiperdin-1-yl derivatives as mu opioid function moderators” (priority 2010, dated 2014)
Where a name gives a salt, the structure may show the parent alone.

Target: T1, Mu opioid receptor (Homo sapiens, UniProt P35372)
T1 construct: expressed in transfected cells; host or cells: HEK-293
Assay: Affinity for the Mu opioid receptor, [3H]diprenorphine radioligand binding
Details: not given
Procedure: Compounds of the invention were assayed for affinity for the Mu opioid receptor using the methodology described in Zhang et al. (J. Pharmacol. Exp. Ther., (1998) 286: 136-141). Compounds were assessed in human recombinant (HEK-293) cells using tritium labeled diprenorphine (0.4 nM) as the specific determinant and non-specific binding was assayed with naltrexone (1 μM). Cells were incubated for 120 minutes at 22° C. before isolation and radioactivity determination by scintillation counting. The IC50 values (concentration causing a half-maximal inhibition of control specific binding) and Hill coefficients (nH) were determined by non-linear regression analysis of the competition curves generated with mean replicate values using Hill equation curve fitting (Y=D+[(A−D)/(1+(C/C50)^nH)], where Y=specific binding, D=minimum specific binding, A=maximum specific binding, C=compound concentration, C50=IC50, and nH=slope factor). The inhibition constants (Ki) were calculated using the Cheng-Prusoff equation (Ki=IC50/(1+(L/KD)), where L=concentration of radioligand in the assay, and KD=affinity of the radioligand for the receptor). Each data point was obtained in duplicate and results are the mean value.

T1 sequence (P35372 whole entry): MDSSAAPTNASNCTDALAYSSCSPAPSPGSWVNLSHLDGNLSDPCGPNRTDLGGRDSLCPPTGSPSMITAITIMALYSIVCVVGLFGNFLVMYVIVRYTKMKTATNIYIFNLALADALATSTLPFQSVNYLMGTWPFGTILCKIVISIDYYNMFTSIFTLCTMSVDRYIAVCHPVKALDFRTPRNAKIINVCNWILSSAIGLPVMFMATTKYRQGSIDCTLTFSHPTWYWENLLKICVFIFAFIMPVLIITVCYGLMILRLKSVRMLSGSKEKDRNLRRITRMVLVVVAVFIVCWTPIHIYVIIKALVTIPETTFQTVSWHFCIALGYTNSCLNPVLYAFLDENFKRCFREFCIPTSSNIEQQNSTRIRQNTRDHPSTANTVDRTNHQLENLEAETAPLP

SMILES | Ki [nM]
Oc1cccc(C2(F)CCN(CCCC3CCCCC3)CC2)c1 [Example 11, 1-(3-Cyclohexylpropyl)-4-fluoro-4-(3-hydroxyphenyl)piperidine Hydrochloride] | < 100
CC1CN(CCOc2ccccc2)CCC1(F)c1cccc(O)c1 (centres unmarked) [Example 13, 4-fluoro-4-(3-Hydroxyphenyl)-3-methyl-1-(2-phenoxyethyl)piperidine Hydrochloride] | < 100
CC1CN(CC(Cc2ccccc2)(Cc2ccccc2)C(=O)O)CCC1(F)c1cccc(O)c1 (centres unmarked) [Example 15, 2,2-Dibenzyl 3-[4-(3-hydroxyphenyl)-4-fluoro-3-methylpiperidin-1-yl]propionic Acid Hydrochloride] | < 100
Cc1ccc(S(=O)(=O)Nc2cccc(C3(F)CCN(CCOc4ccccc4)CC3)c2)cc1 [Example 17, N-{3-[4-Fluoro-1-(2-phenoxyethyl)piperidin-4-yl]phenyl}-4-methyl-benzenesulfonamide Hydrochloride] | 100 to 1000

Same assay, conditions: human recombinant (HEK-293) cells; tritium labeled diprenorphine 0.4 nM; non-specific binding with naltrexone 1 μM; 120 minutes at 22° C.; mean of duplicates; read-out: Affinity

SMILES | Ki [nM]
FC1(c2ccc(Cl)cc2)CCN(CCC(c2ccccc2)c2ccccc2)CC1 [Example 1, 4-(4-Chlorophenyl)-1-(3,3-diphenylpropyl)-4-fluoropiperidine Hydrochloride] | 1000 to 10000
O=C(O)C(Cc1ccccc1)(Cc1ccccc1)CN1CCC(F)(c2ccc(Cl)cc2)CC1 [Example 5, 2,2-Dibenzyl-3-[4-(4-chlorophenyl)-4-fluoropiperidin-1-yl]propionic acid Hydrochloride] | 1000 to 10000
CS(=O)(=O)Nc1cccc(C2(F)CCN(CCOc3ccccc3)CC2)c1 [Example 18, N-{3-[4-Fluoro-1-(2-phenoxyethyl)piperidin-4-yl]phenyl}methane-sulfonamide Hydrochloride] | 1000 to 10000
CC(C)(C)NC(=O)Nc1cccc(C2(F)CCN(CCOc3ccccc3)CC2)c1 [Example 19, 1-tert-Butyl-3-{3-[4-fluoro-1-(2-phenoxyethyl)-piperidin-4-yl]phenyl}-urea] | 1000 to 10000
